Assay results reported in patent US8795992B2, “Yeast with increased butanol tolerance involving cell wall integrity pathway” (Butamax Advanced Biofuels LLC, priority 2008, dated 2014).

Experiments:
BY4743 = test: Growth of BY4743 in isobutanol (growth yield, OD600); type: cell-based, Saccharomyces cerevisiae; details: 1 day (20 hr), 30° C.
[1] = test system: Δslt2/Δslt2 (BY4743 having homozygous deletion of the SLT2 gene); test: Growth of Δslt2 strain in isobutanol (growth yield, OD600); type: cell-based, Saccharomyces cerevisiae; details: 1 day (20 hr), 30° C.

Structure (SMILES): CC(C)CO [isobutanol]
- OD (A600) (BY4743; 0.25 wt % isobutanol): >1
- OD (A600) (BY4743; 0.50 wt % isobutanol): >1
- OD (A600) (BY4743; 0.75 wt % isobutanol): 0.07
- OD (A600) (BY4743; 0.87 wt % isobutanol): 0.07
- OD (A600) (BY4743; 1.00 wt % isobutanol): 0.04
- OD (A600) (BY4743; 1.25 wt % isobutanol): 0.02
- OD (A600) (BY4743; 1.50 wt % isobutanol): 0.04
- OD (A600) ([1]; 0.25 wt % isobutanol): 0.07
- OD (A600) ([1]; 0.50 wt % isobutanol): 0.03
- OD (A600) ([1]; 0.75 wt % isobutanol): 0.03
- OD (A600) ([1]; 0.87 wt % isobutanol): 0.01
- OD (A600) ([1]; 1.00 wt % isobutanol): 0.01
- OD (A600) ([1]; 1.25 wt % isobutanol): 0.02
- OD (A600) ([1]; 1.50 wt % isobutanol): 0.02
